Source: ChEMBL document CHEMBL2074439, “Localization and genomic organization of a new hepatocellular organic anion transporting polypeptide” (J Biol Chem, 2000)

Key:
OATP8 (OATP1B3, SLCO1B3) = biological target: T1, OATP8 (OATP1B3, SLCO1B3) (Homo sapiens, UniProt Q9NPD5); assay: (§1) TP_TRANSPORTER: uptake in OATP8-expressing HEK293 cells; format: functional, cell-based; conditions: HEK293 cells that express OATP8 (OATP1B3)
T1 sequence (Q9NPD5 whole entry): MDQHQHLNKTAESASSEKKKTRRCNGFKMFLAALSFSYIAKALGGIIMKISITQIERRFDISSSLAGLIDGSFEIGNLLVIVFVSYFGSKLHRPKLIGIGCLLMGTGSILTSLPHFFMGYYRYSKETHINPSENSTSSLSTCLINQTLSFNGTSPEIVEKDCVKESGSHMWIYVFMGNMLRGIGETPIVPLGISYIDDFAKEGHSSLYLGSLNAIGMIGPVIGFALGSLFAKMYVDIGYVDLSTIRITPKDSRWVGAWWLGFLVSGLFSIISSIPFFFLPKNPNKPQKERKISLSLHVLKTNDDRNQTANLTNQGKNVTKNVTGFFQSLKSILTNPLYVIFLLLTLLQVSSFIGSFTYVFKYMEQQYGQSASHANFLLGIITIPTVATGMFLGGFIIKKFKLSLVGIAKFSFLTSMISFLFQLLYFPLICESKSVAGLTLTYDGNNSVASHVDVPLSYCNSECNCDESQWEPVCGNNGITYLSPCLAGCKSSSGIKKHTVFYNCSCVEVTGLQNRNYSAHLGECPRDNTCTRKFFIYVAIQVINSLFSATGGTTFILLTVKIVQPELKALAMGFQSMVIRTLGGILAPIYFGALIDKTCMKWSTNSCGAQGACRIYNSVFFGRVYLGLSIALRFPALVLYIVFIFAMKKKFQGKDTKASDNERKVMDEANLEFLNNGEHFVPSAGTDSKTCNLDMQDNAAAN

[1] = biological target: T2, Solute carrier organic anion transporter family member 1B3 (Homo sapiens, UniProt Q9NPD5); assay: as §1; format: functional, cell-based; conditions: hek293
T2 sequence (Q9NPD5 whole entry): T1 sequence (Q9NPD5 whole entry)

Row | Activity [1] | Compound | Km (OATP8 (OATP1B3, SLCO1B3)) | Km [1]
1 | – | C[C@]12CC[C@@H]3c4ccc(O)cc4CC[C@H]3[C@@H]1CC[C@@H]2O[C@@H]1O[C@H](C(=O)O)[C@@H](O)[C@H](O)[C@H]1O [ESTRADIOL 17B GLUCURONIDE] | 5.4 µM | 5.4 µM
2 | substrate [+] | CCCCC/C=C\C\C=C/C=C/C=C/[C@@H](SC[C@@H](NC(=O)CC[C@H](N)C(=O)O)C(=O)NCC(=O)O)[C@@H](O)CCCC(=O)O [LEUKOTRIEN C4] | – | –
3 | – | O=C1OC(c2ccc(O)c(S(=O)(=O)O)c2)(c2ccc(O)c(S(=O)(=O)O)c2)c2c(Br)c(Br)c(Br)c(Br)c21 [SULFOBROMOPHTHALEIN SODIUM] | 3.3 µM | 3.3 µM
